Experiments:
[1] = molecular target: Ribosomal protein S6 kinase alpha-3 (Homo sapiens) (UniProt P51812); test: Rsk2 (h) Upstate kinase activity assay; settings: Compound concentration 10.0 uM
[2] = molecular target: Serine/threonine-protein kinase Chk2 (Homo sapiens) (UniProt O96017); test: CHK2 (h) Upstate kinase activity assay; settings: Compound concentration 10.0 uM
[3] = molecular target: Platelet-derived growth factor receptor alpha (Homo sapiens) (UniProt P16234); test: PDGFRalpha (h) Upstate kinase activity assay; settings: Compound concentration 10.0 uM
[4] = molecular target: T1, Serine/threonine-protein kinase D2 (Homo sapiens) (UniProt Q9BZL6); test: PKD2 (h) Upstate kinase activity assay; settings: Compound concentration 10.0 uM
T1 sequence (whole entry): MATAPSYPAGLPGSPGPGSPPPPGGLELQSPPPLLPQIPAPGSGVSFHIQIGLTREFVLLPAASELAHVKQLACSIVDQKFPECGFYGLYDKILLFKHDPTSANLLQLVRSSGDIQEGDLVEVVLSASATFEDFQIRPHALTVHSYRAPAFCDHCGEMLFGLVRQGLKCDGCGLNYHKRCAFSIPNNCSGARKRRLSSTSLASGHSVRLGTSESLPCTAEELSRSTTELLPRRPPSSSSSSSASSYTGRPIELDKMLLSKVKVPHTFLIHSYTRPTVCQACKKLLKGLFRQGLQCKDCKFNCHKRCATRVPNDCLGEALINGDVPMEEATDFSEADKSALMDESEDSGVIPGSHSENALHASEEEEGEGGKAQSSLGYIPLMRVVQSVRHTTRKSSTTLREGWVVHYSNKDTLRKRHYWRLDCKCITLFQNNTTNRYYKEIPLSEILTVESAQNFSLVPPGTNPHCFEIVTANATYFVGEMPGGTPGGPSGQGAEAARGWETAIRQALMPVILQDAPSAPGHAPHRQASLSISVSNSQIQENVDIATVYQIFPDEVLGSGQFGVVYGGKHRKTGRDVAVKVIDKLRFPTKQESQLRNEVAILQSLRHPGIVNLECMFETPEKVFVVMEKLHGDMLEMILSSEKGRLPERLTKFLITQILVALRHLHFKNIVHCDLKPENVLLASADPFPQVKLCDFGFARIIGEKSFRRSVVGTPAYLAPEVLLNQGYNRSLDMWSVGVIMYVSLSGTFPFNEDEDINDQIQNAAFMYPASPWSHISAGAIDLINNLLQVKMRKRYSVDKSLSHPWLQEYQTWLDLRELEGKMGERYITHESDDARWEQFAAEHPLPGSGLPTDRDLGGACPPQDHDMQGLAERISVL

[5] = molecular target: T2, MAP kinase-activated protein kinase 5 (Homo sapiens) (UniProt Q8IW41); test: PRAK (h) Upstate kinase activity assay; settings: Compound concentration 10.0 uM
T2 sequence (whole entry): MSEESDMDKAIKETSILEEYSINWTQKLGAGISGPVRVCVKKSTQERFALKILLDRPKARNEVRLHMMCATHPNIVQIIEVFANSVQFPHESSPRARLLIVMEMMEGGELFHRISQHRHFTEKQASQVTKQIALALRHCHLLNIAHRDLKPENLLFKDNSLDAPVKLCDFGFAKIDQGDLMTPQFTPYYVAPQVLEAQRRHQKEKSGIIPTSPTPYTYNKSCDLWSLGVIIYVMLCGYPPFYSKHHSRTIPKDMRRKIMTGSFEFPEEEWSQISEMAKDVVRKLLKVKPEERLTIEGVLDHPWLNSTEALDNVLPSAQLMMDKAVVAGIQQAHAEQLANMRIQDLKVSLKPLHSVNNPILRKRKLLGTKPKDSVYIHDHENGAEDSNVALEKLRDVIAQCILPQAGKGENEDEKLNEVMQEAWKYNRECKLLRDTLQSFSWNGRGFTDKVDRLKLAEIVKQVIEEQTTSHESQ

[6] = molecular target: Mitogen-activated protein kinase 10 (Homo sapiens) (UniProt P53779); test: JNK3 (h) Upstate kinase activity assay; settings: Compound concentration 10.0 uM
[7] = molecular target: MAP kinase-activated protein kinase 2 (Homo sapiens) (UniProt P49137); test: MAPKAP-K2 (h) Upstate kinase activity assay; settings: Compound concentration 10.0 uM
[8] = molecular target: Serine/threonine-protein kinase N2 (Homo sapiens) (UniProt Q16513); test: PRK2 (h) Upstate kinase activity assay; settings: Compound concentration 10.0 uM
[9] = molecular target: T3, Ephrin type-B receptor 4 (Homo sapiens) (UniProt P54760); test: EphB4 (h) Upstate kinase activity assay; settings: Compound concentration 10.0 uM
T3 sequence (whole entry): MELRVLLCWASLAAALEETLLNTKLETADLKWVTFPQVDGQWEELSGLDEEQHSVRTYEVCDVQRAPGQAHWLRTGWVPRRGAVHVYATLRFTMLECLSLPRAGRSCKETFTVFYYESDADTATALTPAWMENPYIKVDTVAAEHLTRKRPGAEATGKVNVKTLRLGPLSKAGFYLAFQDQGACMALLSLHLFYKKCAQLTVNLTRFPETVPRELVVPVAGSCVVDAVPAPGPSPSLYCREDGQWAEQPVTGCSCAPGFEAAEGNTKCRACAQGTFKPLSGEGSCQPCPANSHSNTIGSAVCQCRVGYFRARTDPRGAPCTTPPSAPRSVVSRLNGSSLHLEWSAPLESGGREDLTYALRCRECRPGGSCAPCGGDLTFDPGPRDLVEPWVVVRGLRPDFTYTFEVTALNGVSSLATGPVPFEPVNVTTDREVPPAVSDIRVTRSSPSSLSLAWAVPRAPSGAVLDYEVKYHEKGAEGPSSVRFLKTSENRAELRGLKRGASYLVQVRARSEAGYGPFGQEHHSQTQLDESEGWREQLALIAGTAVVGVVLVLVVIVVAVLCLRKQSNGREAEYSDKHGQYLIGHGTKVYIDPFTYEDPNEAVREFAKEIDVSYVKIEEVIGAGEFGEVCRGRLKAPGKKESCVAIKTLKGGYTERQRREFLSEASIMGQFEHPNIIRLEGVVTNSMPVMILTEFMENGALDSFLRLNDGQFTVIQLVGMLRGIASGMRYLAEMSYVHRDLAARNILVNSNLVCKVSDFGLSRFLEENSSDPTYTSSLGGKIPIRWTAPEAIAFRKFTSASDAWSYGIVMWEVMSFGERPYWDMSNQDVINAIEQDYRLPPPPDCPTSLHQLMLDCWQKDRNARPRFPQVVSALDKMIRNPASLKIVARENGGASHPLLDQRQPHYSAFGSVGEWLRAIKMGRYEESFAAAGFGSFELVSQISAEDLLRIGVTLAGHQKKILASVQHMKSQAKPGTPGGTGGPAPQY

[10] = molecular target: Dual specificity mitogen-activated protein kinase kinase 1 (Homo sapiens) (UniProt Q02750); test: MEKI (h) Upstate kinase activity assay; settings: Compound concentration 10.0 uM
[11] = Leukemia […] cell line MDS Pharma Services Proliferation Assay; assay type: functional, cell-based, Homo sapiens
[12] = molecular target: Cyclin-dependent kinase 2/cyclin A (Homo sapiens) (UniProt P24941+P20248+P78396); test: CDK2/ cyclin A (h) Upstate kinase activity assay; assay type: protein-complex assay; settings: Compound concentration 10.0 uM
[13] = molecular target: Sodium-dependent noradrenaline transporter (Homo sapiens) (UniProt P23975); settings: Compound concentration 10.0 uM
Sequence of Sodium-dependent noradrenaline transporter (Homo sapiens) (P23975 whole entry): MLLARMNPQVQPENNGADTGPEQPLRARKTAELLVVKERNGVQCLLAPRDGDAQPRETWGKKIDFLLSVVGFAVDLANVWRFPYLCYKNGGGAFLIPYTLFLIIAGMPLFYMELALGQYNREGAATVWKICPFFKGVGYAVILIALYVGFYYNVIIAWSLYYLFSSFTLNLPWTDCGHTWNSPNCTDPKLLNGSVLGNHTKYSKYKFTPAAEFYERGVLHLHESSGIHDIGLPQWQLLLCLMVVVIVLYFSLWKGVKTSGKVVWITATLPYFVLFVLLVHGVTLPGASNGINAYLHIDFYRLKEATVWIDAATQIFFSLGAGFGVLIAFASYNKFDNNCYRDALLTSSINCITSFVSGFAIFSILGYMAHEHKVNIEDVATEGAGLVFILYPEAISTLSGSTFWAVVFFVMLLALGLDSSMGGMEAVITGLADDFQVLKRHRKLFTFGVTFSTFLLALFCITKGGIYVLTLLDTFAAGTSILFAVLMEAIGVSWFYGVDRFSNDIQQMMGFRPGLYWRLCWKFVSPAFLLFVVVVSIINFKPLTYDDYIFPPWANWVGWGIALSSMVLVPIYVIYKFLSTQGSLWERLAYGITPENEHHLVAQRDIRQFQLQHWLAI

Sequence of Serine/threonine-protein kinase Chk2 (Homo sapiens) (O96017 whole entry): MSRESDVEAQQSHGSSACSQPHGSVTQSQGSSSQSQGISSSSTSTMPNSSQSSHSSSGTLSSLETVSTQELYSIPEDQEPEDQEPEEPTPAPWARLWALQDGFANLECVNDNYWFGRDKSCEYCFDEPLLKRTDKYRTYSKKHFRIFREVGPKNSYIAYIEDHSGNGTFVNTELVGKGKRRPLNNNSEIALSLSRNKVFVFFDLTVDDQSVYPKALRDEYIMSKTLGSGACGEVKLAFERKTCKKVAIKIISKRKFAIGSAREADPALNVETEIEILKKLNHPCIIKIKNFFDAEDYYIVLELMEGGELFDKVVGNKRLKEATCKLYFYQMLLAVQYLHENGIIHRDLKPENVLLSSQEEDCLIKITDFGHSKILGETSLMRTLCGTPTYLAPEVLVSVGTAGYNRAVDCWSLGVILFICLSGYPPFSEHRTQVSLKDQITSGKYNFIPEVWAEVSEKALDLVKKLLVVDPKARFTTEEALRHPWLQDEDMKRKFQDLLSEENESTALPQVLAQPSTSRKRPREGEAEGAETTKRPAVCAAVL
Sequence of Serine/threonine-protein kinase N2 (Homo sapiens) (Q16513 whole entry, looked up): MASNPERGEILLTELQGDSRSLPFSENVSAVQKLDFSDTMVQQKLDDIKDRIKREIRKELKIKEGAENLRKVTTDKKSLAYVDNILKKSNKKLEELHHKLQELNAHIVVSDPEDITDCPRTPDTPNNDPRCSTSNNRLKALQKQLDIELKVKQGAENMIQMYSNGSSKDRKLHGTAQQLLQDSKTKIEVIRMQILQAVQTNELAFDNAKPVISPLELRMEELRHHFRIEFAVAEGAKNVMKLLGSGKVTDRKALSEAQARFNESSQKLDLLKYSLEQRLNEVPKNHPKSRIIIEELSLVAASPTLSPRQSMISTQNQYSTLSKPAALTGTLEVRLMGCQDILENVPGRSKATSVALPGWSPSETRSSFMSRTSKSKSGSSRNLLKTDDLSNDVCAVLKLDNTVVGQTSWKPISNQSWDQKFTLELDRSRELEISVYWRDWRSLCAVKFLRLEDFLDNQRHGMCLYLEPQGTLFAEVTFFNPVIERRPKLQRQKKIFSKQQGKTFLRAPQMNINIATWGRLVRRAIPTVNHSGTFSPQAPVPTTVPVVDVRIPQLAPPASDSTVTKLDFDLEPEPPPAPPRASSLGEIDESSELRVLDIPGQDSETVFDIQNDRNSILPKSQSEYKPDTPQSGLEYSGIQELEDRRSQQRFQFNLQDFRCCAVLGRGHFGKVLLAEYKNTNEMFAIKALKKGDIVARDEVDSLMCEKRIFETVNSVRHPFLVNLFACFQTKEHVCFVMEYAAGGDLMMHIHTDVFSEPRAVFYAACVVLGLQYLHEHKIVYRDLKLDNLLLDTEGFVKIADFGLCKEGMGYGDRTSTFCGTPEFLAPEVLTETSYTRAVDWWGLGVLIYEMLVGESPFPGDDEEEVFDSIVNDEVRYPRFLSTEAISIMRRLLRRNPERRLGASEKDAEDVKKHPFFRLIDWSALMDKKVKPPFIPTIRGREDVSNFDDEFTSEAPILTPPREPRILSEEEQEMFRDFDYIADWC
Sequence of Ribosomal protein S6 kinase alpha-3 (Homo sapiens) (P51812 whole entry): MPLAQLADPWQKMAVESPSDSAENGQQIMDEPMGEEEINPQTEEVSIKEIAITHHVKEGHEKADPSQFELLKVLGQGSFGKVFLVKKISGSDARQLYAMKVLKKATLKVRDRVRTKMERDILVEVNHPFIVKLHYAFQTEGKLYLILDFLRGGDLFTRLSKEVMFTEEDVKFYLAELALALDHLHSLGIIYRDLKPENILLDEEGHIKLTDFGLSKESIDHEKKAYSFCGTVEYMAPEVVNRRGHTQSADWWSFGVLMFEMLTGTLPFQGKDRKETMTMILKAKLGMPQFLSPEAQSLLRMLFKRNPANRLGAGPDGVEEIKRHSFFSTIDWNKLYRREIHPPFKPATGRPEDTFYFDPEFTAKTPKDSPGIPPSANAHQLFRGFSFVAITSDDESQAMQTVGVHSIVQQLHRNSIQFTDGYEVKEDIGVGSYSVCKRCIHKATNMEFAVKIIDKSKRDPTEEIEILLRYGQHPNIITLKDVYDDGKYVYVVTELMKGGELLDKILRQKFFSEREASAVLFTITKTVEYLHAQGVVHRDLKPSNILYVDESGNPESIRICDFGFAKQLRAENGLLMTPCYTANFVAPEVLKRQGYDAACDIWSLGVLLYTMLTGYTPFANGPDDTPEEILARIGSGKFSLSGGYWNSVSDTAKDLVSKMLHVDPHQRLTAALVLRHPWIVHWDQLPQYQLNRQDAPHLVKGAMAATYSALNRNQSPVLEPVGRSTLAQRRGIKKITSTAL
Sequence of Dual specificity mitogen-activated protein kinase kinase 1 (Homo sapiens) (Q02750 whole entry): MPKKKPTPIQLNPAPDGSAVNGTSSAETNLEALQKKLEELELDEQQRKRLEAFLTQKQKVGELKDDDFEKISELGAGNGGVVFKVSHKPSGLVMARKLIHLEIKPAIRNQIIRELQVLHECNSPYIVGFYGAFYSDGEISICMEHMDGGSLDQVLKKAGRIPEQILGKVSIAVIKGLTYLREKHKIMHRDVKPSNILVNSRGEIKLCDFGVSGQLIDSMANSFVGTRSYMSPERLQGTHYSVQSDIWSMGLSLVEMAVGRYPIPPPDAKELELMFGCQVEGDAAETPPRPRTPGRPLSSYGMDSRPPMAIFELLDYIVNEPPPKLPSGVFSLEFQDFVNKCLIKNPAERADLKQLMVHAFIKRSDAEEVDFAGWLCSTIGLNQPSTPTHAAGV
Sequence of Mitogen-activated protein kinase 10 (Homo sapiens) (P53779 whole entry): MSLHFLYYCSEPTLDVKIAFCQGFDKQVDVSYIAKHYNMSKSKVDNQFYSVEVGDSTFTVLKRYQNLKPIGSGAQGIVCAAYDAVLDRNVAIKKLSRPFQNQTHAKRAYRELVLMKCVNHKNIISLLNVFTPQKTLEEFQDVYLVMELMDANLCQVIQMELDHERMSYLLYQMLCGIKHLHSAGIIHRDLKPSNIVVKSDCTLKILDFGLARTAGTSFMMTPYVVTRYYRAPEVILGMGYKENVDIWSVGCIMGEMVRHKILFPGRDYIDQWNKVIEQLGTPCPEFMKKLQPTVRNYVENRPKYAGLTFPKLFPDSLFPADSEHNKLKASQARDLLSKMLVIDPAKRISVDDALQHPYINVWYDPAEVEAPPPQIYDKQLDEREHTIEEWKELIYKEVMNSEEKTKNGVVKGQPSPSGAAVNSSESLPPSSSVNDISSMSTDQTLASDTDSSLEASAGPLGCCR
Sequence of MAP kinase-activated protein kinase 2 (Homo sapiens) (P49137 whole entry, looked up): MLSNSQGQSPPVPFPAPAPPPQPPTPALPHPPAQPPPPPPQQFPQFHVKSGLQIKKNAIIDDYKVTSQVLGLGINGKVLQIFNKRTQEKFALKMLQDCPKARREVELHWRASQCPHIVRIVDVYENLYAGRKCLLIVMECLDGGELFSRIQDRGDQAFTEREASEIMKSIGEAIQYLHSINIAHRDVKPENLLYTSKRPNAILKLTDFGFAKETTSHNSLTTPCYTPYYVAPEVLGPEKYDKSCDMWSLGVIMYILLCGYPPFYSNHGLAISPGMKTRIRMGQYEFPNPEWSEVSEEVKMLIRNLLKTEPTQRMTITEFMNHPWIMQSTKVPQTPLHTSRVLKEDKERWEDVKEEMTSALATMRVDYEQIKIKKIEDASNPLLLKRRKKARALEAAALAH

| Compound | inhibition [1] [%] | inhibition [2] [%] | inhibition [3] [%] | inhibition [4] [%] | inhibition [5] [%] | inhibition [6] [%] | inhibition [7] [%] | inhibition [8] [%] | inhibition [9] [%] | inhibition [10] [%] | IC50 ([11]; Homo sapiens, Leukemia 1-IL-60) [µM] | TGI ([11]; Homo sapiens, Leukemia 1-IL-60) [µM] | CC50 ([11]; Homo sapiens, Leukemia 1-IL-60, read-out: LC50 (the source's name)) [µM] | Mean % growth (n = 2) for 100.0 µM probe concentration ([11]; ± SEM 2 % growth) [%] | Mean % growth (n = 2) for 0.01 µM probe concentration ([11]; ± SEM 4 % growth) [%] | Mean % growth (n = 2) for 0.1 µM probe concentration ([11]; ± SEM 4 % growth) [%] | Mean % growth (n = 2) for 1.0 µM probe concentration ([11]; ± SEM 5 % growth) [%] | Mean % growth (n = 2) for 10.0 µM probe concentration ([11]; ± SEM 6 % growth) [%] | inhibition [12] [%] | inhibition [13] [%] |
| --- | --- | --- | --- | --- | --- | --- | --- | --- | --- | --- | --- | --- | --- | --- | --- | --- | --- | --- | --- | --- |
| Cc1c[nH]c2nccc(Oc3c(F)cc(Nc4cc(Cl)nc(N)n4)cc3F)c12 [BAY-549] | 61 | 64 | 3 | 28 | 36 | 8 | -6 | 70 | -9 | 9 | 21 | > 100 | > 100 | 35 | 98 | 88 | 89 | 53 | 20 |  |
| Cn1cc(Cl)c2c(Oc3c(F)cc(Nc4cc(Cl)nc(N)n4)cc3F)ccnc21 [BAY-4900] |  |  |  |  |  |  |  |  |  |  |  |  |  |  |  |  |  |  |  | 3.14 |

Source: ChEMBL document CHEMBL4507274 (2021)
